# Laboratory results as given in ChEMBL document CHEMBL5715260, “Selectivity Literature for EUbOPEN Chemogenomic Library” (2024).
# Columns and labels:
# Design in all cases: recommended concentration 1 uM
# [1] = molecular target: Steroidogenic factor 1 (Homo sapiens) (UniProt Q13285); experiment: Selectivity interaction (Reporter gene assay) EUB0000555a NR5A1
# [2] = molecular target: T1, Retinoic acid receptor RXR-alpha (Homo sapiens) (UniProt P19793); experiment: Selectivity interaction (Reporter gene assay) EUB0000555a RXRA
# T1 sequence (whole entry): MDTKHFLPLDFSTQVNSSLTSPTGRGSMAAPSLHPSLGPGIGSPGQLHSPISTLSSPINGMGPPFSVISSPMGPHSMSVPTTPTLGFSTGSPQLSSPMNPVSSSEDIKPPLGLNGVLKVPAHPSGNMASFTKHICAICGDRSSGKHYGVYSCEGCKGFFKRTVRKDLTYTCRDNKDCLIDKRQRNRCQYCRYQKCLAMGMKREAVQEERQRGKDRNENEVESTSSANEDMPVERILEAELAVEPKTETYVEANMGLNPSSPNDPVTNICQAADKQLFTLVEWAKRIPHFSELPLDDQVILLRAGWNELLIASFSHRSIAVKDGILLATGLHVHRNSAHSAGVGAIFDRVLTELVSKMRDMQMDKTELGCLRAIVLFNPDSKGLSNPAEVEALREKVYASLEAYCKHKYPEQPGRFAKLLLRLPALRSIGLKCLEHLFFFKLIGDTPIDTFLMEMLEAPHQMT
# [3] = molecular target: Nuclear receptor subfamily 2 group E member 1 (Homo sapiens) (UniProt Q9Y466); experiment: Selectivity interaction (Reporter gene assay) EUB0000555a NR2E1
# Chain of Nuclear receptor subfamily 2 group E member 1 (Homo sapiens) (Q9Y466 whole entry): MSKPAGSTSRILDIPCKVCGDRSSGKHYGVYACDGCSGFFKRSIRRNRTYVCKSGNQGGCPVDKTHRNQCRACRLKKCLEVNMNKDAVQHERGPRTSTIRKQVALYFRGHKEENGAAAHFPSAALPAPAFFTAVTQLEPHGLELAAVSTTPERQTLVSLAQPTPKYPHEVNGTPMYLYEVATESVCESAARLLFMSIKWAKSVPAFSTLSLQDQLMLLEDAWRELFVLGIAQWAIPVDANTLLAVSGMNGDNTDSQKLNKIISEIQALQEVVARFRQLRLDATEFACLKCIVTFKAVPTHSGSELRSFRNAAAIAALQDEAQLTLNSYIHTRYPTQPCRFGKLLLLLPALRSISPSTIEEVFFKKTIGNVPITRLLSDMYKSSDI
# [4] = molecular target: T2, Nuclear receptor subfamily 2 group C member 1 (Homo sapiens) (UniProt P13056); experiment: Selectivity interaction (Reporter gene assay) EUB0000555a NR2C1
# T2 sequence (whole entry): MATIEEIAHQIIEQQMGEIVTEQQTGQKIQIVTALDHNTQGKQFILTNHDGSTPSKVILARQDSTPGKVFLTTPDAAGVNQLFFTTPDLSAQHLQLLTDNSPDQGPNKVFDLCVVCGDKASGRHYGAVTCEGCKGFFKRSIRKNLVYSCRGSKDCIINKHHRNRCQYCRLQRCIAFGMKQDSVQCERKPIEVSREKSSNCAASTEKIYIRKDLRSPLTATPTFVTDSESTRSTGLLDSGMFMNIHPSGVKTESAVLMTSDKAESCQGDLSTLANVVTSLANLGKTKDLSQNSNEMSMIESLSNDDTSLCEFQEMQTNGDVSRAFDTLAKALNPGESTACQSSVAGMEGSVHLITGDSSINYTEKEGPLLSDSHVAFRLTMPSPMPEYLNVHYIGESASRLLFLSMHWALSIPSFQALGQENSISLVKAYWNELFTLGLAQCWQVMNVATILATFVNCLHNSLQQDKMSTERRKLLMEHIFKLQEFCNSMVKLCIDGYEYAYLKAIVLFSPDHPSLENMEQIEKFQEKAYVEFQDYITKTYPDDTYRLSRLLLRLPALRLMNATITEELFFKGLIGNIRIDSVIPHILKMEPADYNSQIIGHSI
# [5] = molecular target: T3, Alpha trans-inducing protein (Human alphaherpesvirus 1) (UniProt A0A5J6DW59); experiment: Selectivity interaction (Reporter gene assay) EUB0000555a UL48
# T3 sequence (A0A5J6DW59 as listed by the source): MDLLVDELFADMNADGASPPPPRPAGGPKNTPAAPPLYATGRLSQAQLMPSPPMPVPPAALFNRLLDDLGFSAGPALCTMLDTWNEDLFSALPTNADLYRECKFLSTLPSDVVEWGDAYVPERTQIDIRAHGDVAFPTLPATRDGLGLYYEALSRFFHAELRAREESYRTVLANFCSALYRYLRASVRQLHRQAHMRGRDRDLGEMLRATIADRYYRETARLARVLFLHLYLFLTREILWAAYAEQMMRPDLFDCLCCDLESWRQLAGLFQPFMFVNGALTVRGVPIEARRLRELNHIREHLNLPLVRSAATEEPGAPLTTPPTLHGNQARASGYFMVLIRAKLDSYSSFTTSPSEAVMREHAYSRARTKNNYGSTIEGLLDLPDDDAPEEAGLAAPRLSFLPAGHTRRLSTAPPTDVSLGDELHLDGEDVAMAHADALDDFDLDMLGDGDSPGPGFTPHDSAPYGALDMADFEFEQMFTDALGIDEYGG
# [6] = molecular target: Nuclear receptor subfamily 4immunitygroup A member 1 (Homo sapiens) (UniProt P22736); experiment: Selectivity interaction (Reporter gene assay) EUB0000555a NR4A1
# Chain of Nuclear receptor subfamily 4immunitygroup A member 1 (Homo sapiens) (P22736 whole entry): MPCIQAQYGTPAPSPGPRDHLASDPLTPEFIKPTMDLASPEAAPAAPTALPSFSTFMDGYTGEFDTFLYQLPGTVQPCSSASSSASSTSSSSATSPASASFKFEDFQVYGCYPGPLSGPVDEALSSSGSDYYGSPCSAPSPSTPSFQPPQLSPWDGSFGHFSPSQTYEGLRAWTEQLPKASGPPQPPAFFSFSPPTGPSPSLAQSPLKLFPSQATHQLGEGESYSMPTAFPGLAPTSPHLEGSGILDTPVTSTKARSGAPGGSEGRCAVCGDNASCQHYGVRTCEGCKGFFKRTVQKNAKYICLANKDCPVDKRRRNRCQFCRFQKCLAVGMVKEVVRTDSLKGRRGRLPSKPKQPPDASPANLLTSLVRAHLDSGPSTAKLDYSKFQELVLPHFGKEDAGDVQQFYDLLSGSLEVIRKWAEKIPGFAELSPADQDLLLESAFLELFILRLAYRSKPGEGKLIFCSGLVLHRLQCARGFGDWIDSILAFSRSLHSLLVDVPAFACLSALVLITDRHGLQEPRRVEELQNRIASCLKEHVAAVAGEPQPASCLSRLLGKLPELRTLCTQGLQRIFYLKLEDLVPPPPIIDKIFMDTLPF
# [7] = molecular target: T4, Hepatocyte nuclear factor 4-alpha (Homo sapiens) (UniProt P41235); experiment: Selectivity interaction (Reporter gene assay) EUB0000555a HNF4A
# T4 sequence (whole entry): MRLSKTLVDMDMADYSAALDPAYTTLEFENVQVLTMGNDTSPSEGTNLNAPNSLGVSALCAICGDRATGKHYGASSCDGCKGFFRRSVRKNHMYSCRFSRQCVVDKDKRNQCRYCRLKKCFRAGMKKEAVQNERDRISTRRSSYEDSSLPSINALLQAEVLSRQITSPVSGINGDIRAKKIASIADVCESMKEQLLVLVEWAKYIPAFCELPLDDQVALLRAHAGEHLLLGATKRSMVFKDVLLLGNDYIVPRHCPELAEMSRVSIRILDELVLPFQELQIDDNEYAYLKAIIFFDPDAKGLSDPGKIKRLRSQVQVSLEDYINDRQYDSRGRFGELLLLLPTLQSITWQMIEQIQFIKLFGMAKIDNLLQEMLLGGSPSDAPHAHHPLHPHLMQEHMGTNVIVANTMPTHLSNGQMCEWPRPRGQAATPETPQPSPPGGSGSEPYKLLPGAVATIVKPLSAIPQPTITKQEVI
# [8] = molecular target: T2, Nuclear receptor subfamily 2 group C member 1 (Homo sapiens); experiment: Selectivity interaction (Reporter gene assay) EUB0000565a NR2C1
# [9] = molecular target: Steroidogenic factor 1 (Homo sapiens) (UniProt Q13285); experiment: Selectivity interaction (Reporter gene assay) EUB0000565a NR5A1
# [10] = molecular target: Nuclear receptor subfamily 4immunitygroup A member 1 (Homo sapiens) (UniProt P22736); experiment: Selectivity interaction (Reporter gene assay) EUB0000565a NR4A1
# [11] = molecular target: T3, Alpha trans-inducing protein (Human alphaherpesvirus 1); experiment: Selectivity interaction (Reporter gene assay) EUB0000565a UL48
# [12] = molecular target: Retinoic acid receptor beta (Homo sapiens) (UniProt P10826); experiment: Selectivity interaction (Reporter gene assay) EUB0000565a RARB; details: screened at recom. conc., Selectivity number of off-targets 0.0, Selectivity number of targets 19.0, Source Knowledge inhouse
# Chain of Retinoic acid receptor beta (Homo sapiens) (P10826 whole entry): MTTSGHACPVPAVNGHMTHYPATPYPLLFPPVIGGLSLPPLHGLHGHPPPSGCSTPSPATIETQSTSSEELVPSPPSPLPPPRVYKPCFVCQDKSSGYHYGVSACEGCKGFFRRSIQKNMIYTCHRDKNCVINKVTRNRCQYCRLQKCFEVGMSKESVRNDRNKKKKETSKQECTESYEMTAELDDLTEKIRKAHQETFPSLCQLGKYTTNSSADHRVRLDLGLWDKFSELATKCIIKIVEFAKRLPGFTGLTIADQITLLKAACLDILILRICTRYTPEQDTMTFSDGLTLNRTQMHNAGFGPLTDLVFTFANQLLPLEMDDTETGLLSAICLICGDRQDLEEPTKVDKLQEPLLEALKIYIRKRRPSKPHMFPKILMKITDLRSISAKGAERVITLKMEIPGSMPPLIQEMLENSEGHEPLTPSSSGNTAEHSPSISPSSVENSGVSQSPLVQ
# [13] = molecular target: T1, Retinoic acid receptor RXR-alpha (Homo sapiens); experiment: Selectivity interaction (Reporter gene assay) EUB0000565a RXRA; details: reference bexarotene 1 uM, Selectivity number of off-targets 0.0, Selectivity number of targets 1.0, Source Knowledge inhouse
# [14] = molecular target: T4, Hepatocyte nuclear factor 4-alpha (Homo sapiens); experiment: Selectivity interaction (Reporter gene assay) EUB0000565a HNF4A
# [15] = molecular target: Nuclear receptor subfamily 2 group E member 1 (Homo sapiens) (UniProt Q9Y466); experiment: Selectivity interaction (Reporter gene assay) EUB0000565a NR2E1
# [16] = molecular target: T4, Hepatocyte nuclear factor 4-alpha (Homo sapiens); experiment: Selectivity interaction (Reporter gene assay) EUB0000568a HNF4A
# [17] = molecular target: Nuclear receptor subfamily 4immunitygroup A member 1 (Homo sapiens) (UniProt P22736); experiment: Selectivity interaction (Reporter gene assay) EUB0000568a NR4A1
# [18] = molecular target: T3, Alpha trans-inducing protein (Human alphaherpesvirus 1); experiment: Selectivity interaction (Reporter gene assay) EUB0000568a UL48
# [19] = molecular target: Steroidogenic factor 1 (Homo sapiens) (UniProt Q13285); experiment: Selectivity interaction (Reporter gene assay) EUB0000568a NR5A1
# [20] = molecular target: T2, Nuclear receptor subfamily 2 group C member 1 (Homo sapiens); experiment: Selectivity interaction (Reporter gene assay) EUB0000568a NR2C1; details: screened at recom. conc., Selectivity number of off-targets 2.0, Selectivity number of targets 5.0, Source Knowledge inhouse
# [21] = molecular target: T1, Retinoic acid receptor RXR-alpha (Homo sapiens); experiment: Selectivity interaction (Reporter gene assay) EUB0000568a RXRA; details: reference bexarotene 1 uM, Selectivity number of off-targets 0.0, Selectivity number of targets 1.0, Source Knowledge inhouse
# [22] = molecular target: Nuclear receptor subfamily 2 group E member 1 (Homo sapiens) (UniProt Q9Y466); experiment: Selectivity interaction (Reporter gene assay) EUB0000568a NR2E1; details: screened at recom. conc., Selectivity number of off-targets 2.0, Selectivity number of targets 5.0, Source Knowledge inhouse
# [23] = molecular target: Steroidogenic factor 1 (Homo sapiens) (UniProt Q13285); experiment: Selectivity interaction (Reporter gene assay) EUB0000567a NR5A1
# [24] = molecular target: T2, Nuclear receptor subfamily 2 group C member 1 (Homo sapiens); experiment: Selectivity interaction (Reporter gene assay) EUB0000567a NR2C1
# [25] = molecular target: Nuclear receptor subfamily 2 group E member 1 (Homo sapiens) (UniProt Q9Y466); experiment: Selectivity interaction (Reporter gene assay) EUB0000567a NR2E1
# [26] = molecular target: T3, Alpha trans-inducing protein (Human alphaherpesvirus 1); experiment: Selectivity interaction (Reporter gene assay) EUB0000567a UL48
# [27] = molecular target: T1, Retinoic acid receptor RXR-alpha (Homo sapiens); experiment: Selectivity interaction (Reporter gene assay) EUB0000567a RXRA
# [28] = molecular target: Nuclear receptor subfamily 4immunitygroup A member 1 (Homo sapiens) (UniProt P22736); experiment: Selectivity interaction (Reporter gene assay) EUB0000567a NR4A1
# [29] = molecular target: T4, Hepatocyte nuclear factor 4-alpha (Homo sapiens); experiment: Selectivity interaction (Reporter gene assay) EUB0000567a HNF4A
# [30] = molecular target: T5, Peroxisome proliferator-activated receptor gamma (Homo sapiens) (UniProt P37231); experiment: Selectivity interaction (Reporter gene assay) EUB0000569a PPARG; details: screened at recom. conc., Selectivity number of off-targets 2.0, Selectivity number of targets 19.0, Source Knowledge inhouse
# T5 sequence (whole entry): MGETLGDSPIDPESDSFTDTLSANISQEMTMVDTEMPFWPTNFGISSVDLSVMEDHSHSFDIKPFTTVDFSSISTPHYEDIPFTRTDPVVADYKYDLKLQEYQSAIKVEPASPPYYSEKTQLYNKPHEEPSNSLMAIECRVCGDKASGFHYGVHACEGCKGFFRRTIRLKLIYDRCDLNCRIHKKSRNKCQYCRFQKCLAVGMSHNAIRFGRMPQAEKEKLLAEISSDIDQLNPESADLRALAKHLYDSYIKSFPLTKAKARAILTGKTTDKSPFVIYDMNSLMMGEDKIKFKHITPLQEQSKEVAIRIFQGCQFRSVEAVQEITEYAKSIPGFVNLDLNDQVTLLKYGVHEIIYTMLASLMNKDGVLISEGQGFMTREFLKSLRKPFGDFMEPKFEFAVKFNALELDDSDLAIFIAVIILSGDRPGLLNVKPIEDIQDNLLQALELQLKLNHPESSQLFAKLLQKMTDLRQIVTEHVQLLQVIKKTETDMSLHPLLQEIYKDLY
# [31] = molecular target: Nuclear receptor subfamily 4immunitygroup A member 1 (Homo sapiens) (UniProt P22736); experiment: Selectivity interaction (Reporter gene assay) EUB0000569a NR4A1
# [32] = molecular target: T2, Nuclear receptor subfamily 2 group C member 1 (Homo sapiens); experiment: Selectivity interaction (Reporter gene assay) EUB0000569a NR2C1
# [33] = molecular target: T1, Retinoic acid receptor RXR-alpha (Homo sapiens); experiment: Selectivity interaction (Reporter gene assay) EUB0000569a RXRA
# [34] = molecular target: Peroxisome proliferator-activated receptor alpha (Homo sapiens) (UniProt Q07869); experiment: Selectivity interaction (Reporter gene assay) EUB0000569a PPARA; details: screened at recom. conc., Selectivity number of off-targets 2.0, Selectivity number of targets 19.0, Source Knowledge inhouse
# Chain of Peroxisome proliferator-activated receptor alpha (Homo sapiens) (Q07869 whole entry): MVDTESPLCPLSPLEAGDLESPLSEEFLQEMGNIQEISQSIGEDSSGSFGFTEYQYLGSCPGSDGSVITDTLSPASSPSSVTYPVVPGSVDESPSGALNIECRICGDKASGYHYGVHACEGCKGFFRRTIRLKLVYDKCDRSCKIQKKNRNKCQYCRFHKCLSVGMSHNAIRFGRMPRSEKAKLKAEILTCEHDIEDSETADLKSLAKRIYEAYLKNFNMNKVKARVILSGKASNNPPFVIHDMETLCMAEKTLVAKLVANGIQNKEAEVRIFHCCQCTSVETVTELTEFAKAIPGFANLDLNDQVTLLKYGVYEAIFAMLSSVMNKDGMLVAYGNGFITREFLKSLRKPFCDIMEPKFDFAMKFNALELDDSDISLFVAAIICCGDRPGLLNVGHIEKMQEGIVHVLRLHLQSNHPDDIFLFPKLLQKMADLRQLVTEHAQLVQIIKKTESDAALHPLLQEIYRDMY
# [35] = molecular target: T3, Alpha trans-inducing protein (Human alphaherpesvirus 1); experiment: Selectivity interaction (Reporter gene assay) EUB0000569a UL48
# [36] = molecular target: Steroidogenic factor 1 (Homo sapiens) (UniProt Q13285); experiment: Selectivity interaction (Reporter gene assay) EUB0000569a NR5A1
# [37] = molecular target: Nuclear receptor subfamily 2 group E member 1 (Homo sapiens) (UniProt Q9Y466); experiment: Selectivity interaction (Reporter gene assay) EUB0000569a NR2E1
# [38] = molecular target: T4, Hepatocyte nuclear factor 4-alpha (Homo sapiens); experiment: Selectivity interaction (Reporter gene assay) EUB0000569a HNF4A
# Chain of Steroidogenic factor 1 (Homo sapiens) (Q13285 whole entry): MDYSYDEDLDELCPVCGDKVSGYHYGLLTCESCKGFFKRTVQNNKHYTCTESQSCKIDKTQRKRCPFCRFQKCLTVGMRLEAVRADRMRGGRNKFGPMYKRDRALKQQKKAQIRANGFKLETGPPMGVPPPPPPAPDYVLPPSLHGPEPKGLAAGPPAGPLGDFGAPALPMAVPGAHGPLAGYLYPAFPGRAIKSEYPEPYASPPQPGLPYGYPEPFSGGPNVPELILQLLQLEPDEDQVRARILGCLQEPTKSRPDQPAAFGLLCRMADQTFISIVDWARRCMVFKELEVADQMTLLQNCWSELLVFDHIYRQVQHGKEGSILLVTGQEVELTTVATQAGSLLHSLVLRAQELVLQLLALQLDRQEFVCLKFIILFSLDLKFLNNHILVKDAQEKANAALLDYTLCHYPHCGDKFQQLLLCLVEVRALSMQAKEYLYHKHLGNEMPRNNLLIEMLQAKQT
smiles,measurement,setting,value
N[C@@H](Cc1cc(I)c(Oc2ccc(O)c(I)c2)c(I)c1)C(=O)O,Remaining activity,[1],0.79
same,Relative activation,[2],0.715%
same,Fold activation,[3],1.03
same,Remaining activity,[4],0.695
same,P-value,[5],8.08e-06
same,Remaining activity,[6],0.804
same,Remaining activity,[7],0.559
CC1(C)C(=O)C(C)(C)c2cc(C(=O)Nc3ccc(C(=O)O)cc3)ccc21,Fold activation,[8],1
same,Remaining activity,[9],0.944
same,Remaining activity,[10],0.925
same,P-value,[11],0.000922
same,Fold activation,[12],13.5
same,Relative activation,[13],0.48%
same,Remaining activity,[14],0.954
same,Remaining activity,[15],0.923
O=C(O)c1ccc2cc(-c3ccc(O)c(C45CC6CC(CC(C6)C4)C5)c3)ccc2c1,Remaining activity,[16],0.803
same,Fold activation,[17],1.24
same,P-value,[18],0.0191
same,Fold activation,[19],1.34
same,Fold activation,[20],1.5
same,Relative activation,[21],0.61%
same,Fold activation,[22],2.03
CC1(C)CCC(C)(C)c2cc(C(=O)Nc3ccc(C(=O)O)cc3)ccc21,Remaining activity,[23],0.908
same,Remaining activity,[24],0.976
same,Remaining activity,[25],0.642
same,P-value,[26],0.0055
same,Relative activation,[27],0.898%
same,Fold activation,[28],1.04
same,Fold activation,[29],1.07
Cc1cc(SCc2sc(-c3ccc(C(F)(F)F)c(F)c3)nc2C)ccc1OCC(=O)O,Fold activation,[30],10.5
same,Fold activation,[31],1.17
same,Fold activation,[32],1.31
same,Relative activation,[33],0.693%
same,Fold activation,[34],14.8
same,P-value,[35],0.0031
same,Fold activation,[36],1.02
same,Fold activation,[37],1.36
same,Fold activation,[38],1.11
